Series [1] addresses T1, RET (Homo sapiens, UniProt P07949, C634W).
T1 construct: endogenous in cells; host or cells: TT cells (human medullary thyroid carcinoma), in culture or as xenograft tumours in nu/nu mice
The series is described as follows: phosphorylation of RET in TT xenograft tumors in vivo (Western immunoblot). The arrangement: species or system mice.

The subject of series [2] is AKT and ERK. Briefly: phosphorylation of AKT and ERK in TT xenograft tumors in vivo. The arrangement: species or system mice. As to conditions: single 100-mg/kg oral dose. On the procedure:
Levels of phosphorylated and total RET and were determined in pooled lysates by Western immunoblot analysis. In a separate study, mice bearing TT tumors were administered a single oral dose of cabozantinib (100 mg/kg) or water vehicle, and levels of phosphorylated and total RET, AKT, and ERK in tumor lysates were determined at the indicated time points post dose. Densitometric quantitation of the duration of inhibition of phosphorylation of RET versus plasma concentrations of cabozantinib. Representative Western blot images are shown. […] This effect was reversible as RET phosphorylation returned to basal levels by 48 hours after treatment as depicted in FIG. 1C.

The subject of series [3] is TT xenograft tumors. The series is described as follows: TT xenograft tumor growth. The class given is in vivo, nu/nu mice. As to conditions: oral once daily, 21 days. On the procedure: (§1) Nu/nu mice bearing TT tumors were orally administered once daily water vehicle (□) or cabozantinib at 3 mg/kg (∇), 10 mg/kg (◯), 30 mg/kg (♦), or 60 mg/kg (⋄) for 21 days. Tumor weights were determined twice weekly. Data points represent the mean tumor weight (in milligrams) and SE for each treatment group. Circulating calcitonin levels were determined in serum preparations from whole blood collected after the final indicated doses (* indicates a significant, P <0.05, reduction in circulating calcitonin when compared to serum samples from vehicle-treated control animals).

Series [4] is described as follows: plasma concentrations in TT xenograft study. The class given is in vivo, nu/nu mice. As to conditions: 30- and 60-mg/kg doses, oral once daily.
For series [5] the following is noted: mouse, in vivo. On the procedure: as §1
. Given that TT xenograft tumors are known to secrete high amounts of human calcitonin that correlates with tumor size, serum concentrations of circulating calcitonin were determined at the end of the dosing period. […]; P <0.005) at both the 30- and 60-mg/kg doses when compared to vehicle control animals, as depicted in FIG. 2B. Moreover, this reduction in circulating plasma calcitonin correlated with TT tumor growth inhibition described above. […]

The target in series [6] is T2, KIF5B-RET fusion-positive NSCLC (Homo sapiens, UniProt P07949).
T2 construct: expression of variant 1 transcripts (KIF5B exon 15; RET exon 12); endogenous in cells; host or cells: lung adenocarcinoma cells of the patient (pleural effusion cells); the other entry of the earlier key: KIF5B (P33176, Kinesin-1 heavy chain)
T2 sequence (P07949 with tags, fused parts or gaps): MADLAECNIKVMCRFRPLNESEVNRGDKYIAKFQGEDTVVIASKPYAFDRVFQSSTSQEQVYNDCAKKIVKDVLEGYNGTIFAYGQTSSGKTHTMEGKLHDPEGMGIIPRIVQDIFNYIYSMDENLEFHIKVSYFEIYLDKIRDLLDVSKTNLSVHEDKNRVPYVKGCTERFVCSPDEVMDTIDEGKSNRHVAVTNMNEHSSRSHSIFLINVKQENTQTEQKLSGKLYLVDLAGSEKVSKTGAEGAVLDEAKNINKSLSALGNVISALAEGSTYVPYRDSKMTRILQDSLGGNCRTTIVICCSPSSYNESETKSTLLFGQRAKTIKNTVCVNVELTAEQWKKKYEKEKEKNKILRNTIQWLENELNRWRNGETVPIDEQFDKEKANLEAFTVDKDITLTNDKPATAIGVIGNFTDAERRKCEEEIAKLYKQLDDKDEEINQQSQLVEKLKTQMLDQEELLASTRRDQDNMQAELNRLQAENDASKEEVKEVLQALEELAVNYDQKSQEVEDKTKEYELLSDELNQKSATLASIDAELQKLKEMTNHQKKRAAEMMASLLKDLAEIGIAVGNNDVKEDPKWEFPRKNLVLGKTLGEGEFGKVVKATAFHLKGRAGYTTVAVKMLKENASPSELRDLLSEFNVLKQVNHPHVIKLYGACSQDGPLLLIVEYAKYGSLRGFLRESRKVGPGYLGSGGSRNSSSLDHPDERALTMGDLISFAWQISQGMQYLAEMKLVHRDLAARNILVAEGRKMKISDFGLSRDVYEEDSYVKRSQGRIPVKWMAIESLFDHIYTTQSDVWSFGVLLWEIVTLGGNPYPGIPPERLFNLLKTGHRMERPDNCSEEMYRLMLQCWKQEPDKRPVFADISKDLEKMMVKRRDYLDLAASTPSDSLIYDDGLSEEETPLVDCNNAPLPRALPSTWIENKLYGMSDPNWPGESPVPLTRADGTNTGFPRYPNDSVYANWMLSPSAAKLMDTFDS
The series is described as follows: case study, phase 1 monotherapy in a patient with KIF5B-RET fusion-positive NSCLC. It counts as in vivo. The text has this: A person who was a former smoker presented in April 2009 for evaluation of a right pleural effusion. […] There was also no tumor in either the neck or thyroid on the CT scans. The patient was diagnosed as having stage IIIB (cT4N0M0, 6th edition of the International System for Staging Lung cancer) adenocarcinoma of the lung. […] Re-growth of primary tumor was, however, reported 8 months after the end of therapy. The patient subsequently received 13 cycles of docetaxel as second-line treatment and 2 cycles of an investigational drug (anti-HER2 [human epidermal growth factor receptor type2] antibody) as third-line treatment. […] Yamamoto, N., Nokihara, H., Wakui, H., Yamada, Y., Frye, J., DeCillis, A., and Tamura, T. A phase 1 multiple ascending dose study of cabozantinib (XL184) monotherapy in Japanese patients with advanced solid tumors. Molecular Cancer Therapeutics. 2011 10 suppl 1 (abstr C26) and Nokihara, H., Yamamoto, N., Nakamichi, S., Wakui, H., Yamada, Y., Frye, J., Decillis, A., and Tamura, T. in Annals of Oncology, Vol. 23, Supplement 9, published September 17, 2012.
In February 2012, they terminated cabozantinib monotherapy due to progressive disease.

Series [7] relates to medullary thyroid cancer. The settings on record: 25 of 37 patients with MTC; cited from earlier work.
Series [8] deals with T3, KIF5B-RET (Homo sapiens, UniProt P07949).
T3 sequence (P07949 713-1063 limits assumed): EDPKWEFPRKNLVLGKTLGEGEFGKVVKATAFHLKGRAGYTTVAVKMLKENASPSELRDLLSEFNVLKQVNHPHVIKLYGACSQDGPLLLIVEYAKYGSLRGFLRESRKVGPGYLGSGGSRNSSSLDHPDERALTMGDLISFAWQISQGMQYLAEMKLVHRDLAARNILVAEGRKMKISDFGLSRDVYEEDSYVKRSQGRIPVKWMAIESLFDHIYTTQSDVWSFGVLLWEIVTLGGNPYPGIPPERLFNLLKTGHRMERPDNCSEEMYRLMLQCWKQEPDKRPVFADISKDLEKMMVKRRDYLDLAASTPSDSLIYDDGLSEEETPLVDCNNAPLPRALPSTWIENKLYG
The settings on record: in vitro studies; cited from earlier work.

SMILES strings stand for the structures.

T1 sequence (P07949 29-1114 C634W): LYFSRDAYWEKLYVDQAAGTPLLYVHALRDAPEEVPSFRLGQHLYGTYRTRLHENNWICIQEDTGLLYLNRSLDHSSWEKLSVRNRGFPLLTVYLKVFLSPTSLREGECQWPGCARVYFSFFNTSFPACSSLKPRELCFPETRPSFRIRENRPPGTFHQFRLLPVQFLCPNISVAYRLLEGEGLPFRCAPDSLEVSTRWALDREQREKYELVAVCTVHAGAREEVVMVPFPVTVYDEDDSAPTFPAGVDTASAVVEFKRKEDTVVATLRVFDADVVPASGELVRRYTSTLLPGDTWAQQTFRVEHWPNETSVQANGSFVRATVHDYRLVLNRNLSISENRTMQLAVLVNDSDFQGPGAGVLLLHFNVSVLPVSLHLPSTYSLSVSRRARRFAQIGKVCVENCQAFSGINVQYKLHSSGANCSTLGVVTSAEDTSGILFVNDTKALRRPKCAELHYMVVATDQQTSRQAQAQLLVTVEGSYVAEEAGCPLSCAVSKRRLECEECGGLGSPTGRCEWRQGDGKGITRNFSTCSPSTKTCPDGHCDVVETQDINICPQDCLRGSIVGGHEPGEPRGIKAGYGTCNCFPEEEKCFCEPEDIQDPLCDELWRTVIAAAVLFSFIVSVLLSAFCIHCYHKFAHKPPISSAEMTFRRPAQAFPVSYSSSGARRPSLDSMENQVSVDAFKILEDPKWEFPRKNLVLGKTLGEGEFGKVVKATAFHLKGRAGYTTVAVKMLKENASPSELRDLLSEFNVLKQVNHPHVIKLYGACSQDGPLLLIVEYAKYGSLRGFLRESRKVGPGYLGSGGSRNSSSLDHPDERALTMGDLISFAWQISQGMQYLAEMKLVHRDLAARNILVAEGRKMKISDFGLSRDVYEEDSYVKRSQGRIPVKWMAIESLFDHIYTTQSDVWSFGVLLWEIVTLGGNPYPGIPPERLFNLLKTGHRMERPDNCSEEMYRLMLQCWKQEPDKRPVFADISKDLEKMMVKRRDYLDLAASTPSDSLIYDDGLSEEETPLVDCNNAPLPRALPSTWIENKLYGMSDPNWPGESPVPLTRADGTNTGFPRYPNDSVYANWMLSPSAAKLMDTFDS

As for `COc1cc2nccc(Oc3ccc(NC(=O)C4(C(=O)Nc5ccc(F)cc5)CC4)cc3)c2cc1OC` [Compound 1, N-(4-{[6,7-bis(methyloxy)quinolin-4-yl]oxy}phenyl)-N′-(4-fluorophenyl)cyclopropane-1,1-dicarboxamide], the “time of inhibition of phosphorylation of RET post dose” value in series [1] (single 100-mg/kg oral dose) was in the range of 4 to 24 h. Also, in series [1] (single 100-mg/kg oral dose, after treatment), the “time at which RET phosphorylation returned to basal levels” value was ≤ 48 h. Moreover, in series [1] (single ascending oral dose, tumors collected 4 h post dose), the “inhibition of phosphorylation of RET in tumors” value is “dose-dependent inhibition of phosphorylation of RET”. In addition, the “time of reduced phosphorylation levels of AKT and ERK post dose” value in series [2] was 4 to 24 h. Further, the “TT xenograft tumor growth” value in series [3] (10- and 30-mg/kg doses) is “dose-dependent inhibition”. The “TT xenograft tumor growth outcome” value in series [3] (30- and 60-mg/kg doses) is on record as “stable disease”. The “peak cyclical plasma concentrations” value in series [4] is reported as 3,000 to 45,000 nmol/L. Further, in series [5], the “tolerability (stable body weights)” value is recorded as “well tolerated”. In series [6] (during 10 cycles (months) of therapy, without clinical symptoms of pancreatitis), the “adverse event leading to drug interruptions” value is reported as “grade 3 serum lipase elevations”. Moreover, the “response of primary lung tumor on chest CT” value in series [6] (starting dose 40 mg once a day, at 9 weeks, confirmed at 17 weeks) is reported as “partial response”. This compound also returned a tumor reduction in series [6] (starting dose 40 mg once a day, chest CT at 9 weeks) of 40.1%. For the same compound, the “patients with confirmed partial response or stable disease for 6 months or longer” value in series [7] was 68%.
With `CNC(=O)c1cc(Oc2ccc(NC(=O)Nc3ccc(Cl)c(C(F)(F)F)c3)cc2)ccn1` [sorafenib], the “growth and signaling properties mediated by KIF5B-RET after treatment” value in series [8] is listed as “diminished”.
